According to US20230312580A1, “1-(5-(2-CYANOPYRIDIN-4-YL)OXAZOLE-2-CARBONYL)-4-METHYLHEXAHYDROPYRROLO[3,4-B]PYR ROLE-5(1H)-CARBONITRILE AS USP30 INHIBITOR FOR USE IN THE TREATMENT OF MITOCHONDRIAL DYSFUNCTION, CANCER AND FIBROSIS” (MISSION THERAPEUTICS LIMITED, priority 2020, published 2023):
≈ marks a conversion by molar mass, not a printed value.

Columns and labels:
[1] = tested on: USP2, USP6, USP10, USP16, USP21, USP25, USP28; assay: DUB IC50 selectivity panel (seven DUBs); format: biochemical; details: range over the seven DUBs
Mouse plasma stability = format: in vitro ADME; details: for half-life: read-out: Stability Mouse plasma t½
Text: Other parameters that may be measured using standard assays that are indicative of a compound’s exposure profile include, for example plasma stability (half-life measurement), blood AUC, Cmax, Cmin and Tmax values.

Cathepsin L = Cathepsin L (Homo sapiens (Human), UniProt P07711); assay: Cathepsin L IC50; format: biochemical
Chain of Cathepsin L (P07711 114-333, species assumed): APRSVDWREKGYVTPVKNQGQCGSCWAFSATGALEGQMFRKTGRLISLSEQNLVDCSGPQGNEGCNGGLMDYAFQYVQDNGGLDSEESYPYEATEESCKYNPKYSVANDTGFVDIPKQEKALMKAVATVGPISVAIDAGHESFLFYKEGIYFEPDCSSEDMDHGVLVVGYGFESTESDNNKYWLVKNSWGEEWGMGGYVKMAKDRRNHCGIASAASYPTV

Cathepsin B = Cathepsin B (Homo sapiens (Human), UniProt P07858); assay: Cathepsin B IC50; format: biochemical
Cathepsin V = Cathepsin V (Homo sapiens (Human), UniProt O60911); assay: Cathepsin V IC50; format: biochemical
Chain of Cathepsin V (O60911 114-334, species assumed): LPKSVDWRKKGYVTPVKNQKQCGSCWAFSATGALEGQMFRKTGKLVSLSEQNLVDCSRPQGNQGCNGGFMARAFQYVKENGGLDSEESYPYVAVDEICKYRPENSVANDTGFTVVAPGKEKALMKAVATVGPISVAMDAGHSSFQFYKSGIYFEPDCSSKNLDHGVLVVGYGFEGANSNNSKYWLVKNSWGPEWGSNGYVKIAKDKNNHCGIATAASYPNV

USP30 = USP30 (Homo sapiens (Human), UniProt Q70CQ3); assay: USP30 biochemical IC50 assay (fluorescence polarisation); details: biochemical FP assay, 30 min enzyme/compound incubation
Chain of USP30 (Q70CQ3 57-517): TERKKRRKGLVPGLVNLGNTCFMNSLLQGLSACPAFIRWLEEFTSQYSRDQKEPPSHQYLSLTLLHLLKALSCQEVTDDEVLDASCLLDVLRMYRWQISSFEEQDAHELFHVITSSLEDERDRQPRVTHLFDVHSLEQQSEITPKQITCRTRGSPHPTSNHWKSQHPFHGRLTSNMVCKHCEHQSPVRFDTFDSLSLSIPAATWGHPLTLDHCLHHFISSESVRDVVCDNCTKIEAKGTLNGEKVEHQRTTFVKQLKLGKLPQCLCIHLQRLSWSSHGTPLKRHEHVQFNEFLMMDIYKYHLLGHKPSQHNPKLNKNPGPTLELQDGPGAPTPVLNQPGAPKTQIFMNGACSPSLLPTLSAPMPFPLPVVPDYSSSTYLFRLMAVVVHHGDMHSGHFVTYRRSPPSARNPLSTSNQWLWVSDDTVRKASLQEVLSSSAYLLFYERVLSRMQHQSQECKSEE
Protocol: Compounds of the invention may be tested for USP30 affinity using the in vitro biochemical fluorescence polarization (FP) assay described herein.
Dilution plates were prepared at 21 times the final concentration (2100 µM for a final concentration of 100 µM) in 50% DMSO in a 96-well polypropylene V-bottom plate (Greiner #651201). A typical 8-point dilution series would be 100, 30, 10, 3, 1, 0.3, 0.1, 0.03 µM final. Reactions were performed in duplicate in black 384 well plates (small volume, Greiner 784076) in a final reaction volume of 21 µl. Either 1 µl of 50% DMSO or diluted compound was added to the plate. USP30 (Boston Biochem #E582) was diluted in reaction buffer (40 mM Tris, pH 7.5, 0.005% Tween 20, 0.5 mg/ml BSA, 5 mM beta-mercaptoethanol) to achieve a final assay concentration of 4 nM, and 10 µl of diluted USP30 was added to the compound. Enzyme and compound were incubated for 30 min at room temp. Reactions were initiated by the addition of 50 nM of TAMRA labelled peptide linked to ubiquitin via an iso-peptide bond as fluorescence polarisation substrate. Reactions were read immediately after addition of substrate and following a 2-hour incubation at room temperature. Readings were performed on a Pherastar Plus (BMG Labtech). λ Excitation 540 nm; λ Emission 590 nm.

Hepatocyte Cl mouse = format: in vitro ADME; details: mouse hepatocytes
Protocol: Hep Cl mouse: in vitro hepatocyte clearance in mouse cells.
(§1) Clu: in vitro clearance. Clu as defined here is the scaled clearance, in turn calculated from the intrinsic clearance. The intrinsic clearance is the predicted clearance due to hepatic metabolic reactions, determined from incubation of a compound in a hepatocyte preparation.

UCHL1 = UCHL1 (Homo sapiens (Human), UniProt P09936); assay: UCHL1 DUB IC50; format: biochemical
Chain of UCHL1 (P09936 whole entry, species assumed): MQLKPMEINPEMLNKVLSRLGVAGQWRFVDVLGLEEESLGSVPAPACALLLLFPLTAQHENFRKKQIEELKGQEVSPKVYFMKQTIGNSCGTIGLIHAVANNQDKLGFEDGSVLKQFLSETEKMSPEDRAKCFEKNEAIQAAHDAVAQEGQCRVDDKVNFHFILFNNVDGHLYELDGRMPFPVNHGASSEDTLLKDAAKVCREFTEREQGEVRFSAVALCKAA

[2] = tested on: Salmonella typhimurium strains TA98, TA100, TA1535 and TA97a and the Escherichia Coli strain WP2 uvrA pKM101; assay: Bacterial reverse mutation assay (Ames); details: up to 5000 µg/plate with and without metabolic activation
Protocol: The bacterial reverse mutation assay (Ames Test) may be used to evaluate the mutagenic properties of compounds of the invention, commonly by using the bacterial strain Salmonella typhimurium, which is mutant for the biosynthesis of the amino acid histidine.
All in vitro tests were conducted with and without exogenous metabolic activation using concentrations up to those limited by cytotoxicity or insolubility.

hERG potassium channel = hERG potassium channel (Homo sapiens (Human), UniProt Q12809); assay: hERG potassium channel current in stably expressed CHO cells; format: cell-based; details: at 30 µM, 0.01 to 30 µM tested
Chain of hERG potassium channel (Q12809 whole entry): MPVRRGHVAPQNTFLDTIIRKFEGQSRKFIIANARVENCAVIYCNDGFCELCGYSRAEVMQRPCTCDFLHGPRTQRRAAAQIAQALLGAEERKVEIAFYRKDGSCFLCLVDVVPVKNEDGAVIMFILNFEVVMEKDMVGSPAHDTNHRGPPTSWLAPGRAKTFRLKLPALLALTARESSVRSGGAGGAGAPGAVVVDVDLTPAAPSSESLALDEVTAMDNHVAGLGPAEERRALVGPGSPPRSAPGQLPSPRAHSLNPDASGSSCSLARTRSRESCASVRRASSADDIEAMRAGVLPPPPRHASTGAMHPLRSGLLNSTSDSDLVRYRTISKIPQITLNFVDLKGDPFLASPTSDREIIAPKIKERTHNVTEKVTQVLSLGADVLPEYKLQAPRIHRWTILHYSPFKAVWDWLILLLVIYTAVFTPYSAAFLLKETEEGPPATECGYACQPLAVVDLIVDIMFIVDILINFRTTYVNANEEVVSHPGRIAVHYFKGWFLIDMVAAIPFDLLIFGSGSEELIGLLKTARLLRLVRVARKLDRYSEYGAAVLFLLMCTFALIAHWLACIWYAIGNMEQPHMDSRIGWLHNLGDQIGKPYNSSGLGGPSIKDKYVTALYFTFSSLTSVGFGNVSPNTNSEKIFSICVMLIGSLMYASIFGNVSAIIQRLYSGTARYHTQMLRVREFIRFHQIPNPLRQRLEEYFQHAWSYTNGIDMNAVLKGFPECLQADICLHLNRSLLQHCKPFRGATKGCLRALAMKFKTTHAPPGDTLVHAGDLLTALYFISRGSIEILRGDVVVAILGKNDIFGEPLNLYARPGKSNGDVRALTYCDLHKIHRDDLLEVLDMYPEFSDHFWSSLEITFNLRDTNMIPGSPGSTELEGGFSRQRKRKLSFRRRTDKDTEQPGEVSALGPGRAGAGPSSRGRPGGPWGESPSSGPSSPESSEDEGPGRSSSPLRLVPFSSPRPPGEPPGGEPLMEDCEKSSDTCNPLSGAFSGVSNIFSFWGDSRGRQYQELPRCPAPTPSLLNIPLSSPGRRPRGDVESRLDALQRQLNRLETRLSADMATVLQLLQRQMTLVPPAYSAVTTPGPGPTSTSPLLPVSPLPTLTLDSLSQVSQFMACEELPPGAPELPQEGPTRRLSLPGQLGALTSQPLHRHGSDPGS
Text: The hERG predictor assay provides valuable information about the possible binding of test compounds to the potassium channel and potential QT prolongation on […]. Inhibition of the hERG current causes QT interval prolongation resulting in potentially fatal ventricular tachyarrhythmia (Torsades de Pointes). Typically, assay data may be generated from an automated patch-clamp assay platform.

Dog PK (CSF) = format: in vivo
Text: (§2) Kpuu is the ratio of unbound drug in brain to unbound drug in plasma and may be indicative of potential for treating peripheral and/or CNS indications.

[3] = tested on: Eurofins CEREP SafetyScreen44 panel; assay: Eurofins CEREP SafetyScreen44 panel profiling; format: binding; details: single concentration of 10 µM
Text: Aside from selectivity over other DUB enzymes, it is important for a drug to have low affinity for other targets, and pharmacological profiling may be performed against panels of targets to assess the potential for, and to minimise, potential off-target effects. Examples of targets for which the compounds of the present invention may be screened against are those of the industry standard Eurofins-Cerep SafetyScreen44 panel, which includes 44 targets as a representative selection of GPCR receptors, transporters, ion channels, nuclear receptors, and kinase and non-kinase enzymes. Preferably, compounds of the invention have insignificant affinity against targets of this screening panel. Further examples of targets for which the compounds of the present invention may be screened against are kinases of the Thermo Fisher SelectScreen kinase profiling panel, which includes 39 targets as a representative selection of kinase enzymes. Preferably, compounds of the invention have insignificant affinity against targets of this screening panel. Additionally, examples of a particular enzyme class for which the compounds of the present invention may be screened against are the cathepsins (e.g. cathepsin A, B, C, H, K, L, L2, S, V and Z). Preferably, compounds of the invention have good selectivity for USP30 over one or more of these enzymes.

[4] = Plasma binding mouse (equilibrium dialysis); format: in vitro ADME; details: read-out: Binding Mouse Plasma fu,p
Text: (§3) Plasma fu,p: The free fraction of a compound in plasma preparation determined by in vitro equilibrium dialysis. It is understood that only unbound (free) compound is capable of engaging with the target. Brain fu,br: The free fraction of a compound in brain homogenate preparation determined by in vitro equilibrium dialysis. It is understood that only unbound (free) compound is capable of engaging with the target.

[5] = tested on: cathepsins (B, K, L, S and V); assay: Cathepsin IC50 panel, summary over B, K, L, S, V; format: biochemical; details: range over the five cathepsins
FaSSIF solubility = format: physicochemical; details: pH 6.5, fasted state simulated intestinal fluid
Text: FaSSIF: simulated intestinal fluid in fasted state measured at pH 6.5.

Hepatocyte Cl human = format: in vitro ADME; details: human hepatocytes
Protocol: Hep Cl human: in vitro hepatocyte clearance in human cells.
as §1

TK6 cells = assay: In vitro micronucleus assay; format: cell-based; details: 27 hours recovery
Protocol: The micronucleus assay may be used to determine if a compound is genotoxic by evaluating the presence of micronuclei. Micronuclei may contain chromosome fragments produced from DNA breakage (clastogens) or whole chromosomes produced by disruption of the mitotic apparatus (aneugens).
Induction of chromosome damage was assessed using the in vitro micronucleus assay in TK6 cells.

Rat PK microdialysis = format: in vivo; details: microdialysis 30 mg/kg po
Text: as §2

Mouse PK microdialysis = format: in vivo
Text: as §2

PK mouse (IV and oral) = format: in vivo; details: plasma
Text: Cl in vivo clearance: Pharmacokinetic measurement of the volume of plasma (or any matrix) from which a substance is completely removed per unit time.

[6] = Log D lipophilicity measurement; format: physicochemical; details: pH 7.4; read-out: Log D measured at pH 7.4
Text: log D: distribution co-efficient; lipophilicity measurement.

[7] = Brain homogenate binding mouse (equilibrium dialysis); format: in vitro ADME; details: read-out: Binding Mouse Brain fu,br
Text: as §3

[8] = tested on: HCT116 human colorectal carcinoma cells; assay: In vitro cytotoxicity (Cell Tox), alamarBlue; format: cell-based; details: HCT-116, 96-hour continual compound exposure
Text: There is also a need for compounds that have a favourable safety profile, which may be measured by a variety of standard in vitro and in vivo methods. A cell toxicity counter-screen may be used to assay the anti-proliferative/cytotoxic effect in a particular cell line (e.g. HCT116) by fluorometric detection of rezasurin (alamarBlue™) to resofurin in response to mitochondrial activity.
In Vitro Cytotoxicity (Cell Tox): Measured in HCT116 human colorectal carcinoma cells using alamarBlue™ as the assay endpoint. Compound cytotoxicity was measured over a period of 96-hour continual compound exposure.

UUO injured kidneys = assay: Unilateral ureteral obstructive kidney disease model (UUO); format: in vivo, C57BL/6 mice; details: 10 days
Text: UUO causes renal injury characterised by tubular cell injury, interstitial inflammation and fibrosis. It serves as a model of irreversible post-renal acute kidney injury (AKI). Experimental UUO has illustrated the molecular mechanisms of apoptosis, inflammation and fibrosis, all of which are key processes in renal injury, regardless of the primary insult. Consequently, the UUO model provides investigators information beyond obstruction (Chevalier et al, 2009, Kidney Int 75(11): 1145-1152). Example 1 was assessed in the UUO model to determine the ability of the compound to attenuate progressive tubulointerstitial fibrosis and chronic kidney disease (CKD). […] Two hours post dosing on day 1 study mice underwent surgery to ligate the left ureter at two points. Successful UUO surgery was later confirmed by observation of dilation of renal pelvis due to hydronephrosis. The animals were dosed according to their prescribed regimen for 10 days at which point kidneys were harvested, or histopathology assessment and for protein/RNA assessment. Picrosirius Red staining was performed to assess the extent of collagen deposition and IHC was employed to assess relative α-Smooth Muscle Actin (α-SMA) expression.

Turbidimetric solubility = format: physicochemical; details: aqueous buffer, kinetic from dmso stock
Text: The solubility of a compound is an important factor in achieving a desired concentration of drug in systemic circulation for the anticipated pharmacological response. Low aqueous solubility is a problem encountered with formulation development of new chemical entities and to be absorbed a drug must be present in the form of solution at the site of absorption. The kinetic solubility of a compound may be measured using a turbidimetric solubility assay, the data from which may also be used in conjunction with Caco-2 permeability data to predict dose dependent human intestinal absorption.
Turbidimetric solubility: Test compound solution prepared in DMSO diluted into aqueous buffer. Turbidimetry is used as the end-point by measuring absorbance at 620 nm.

WT-MDCK in vitro flux = format: in vitro ADME; details: dog

Compound: Cc1cc(-c2cccc(C(=O)N3CC[C@@H]4CN(C#N)C[C@@H]43)c2)ccn1 [Reference Example C]
- IC50 [1]: 4 to 92.4 µM
- half-life (Mouse plasma stability): 16 min
- IC50 (Cathepsin L): 1.3 µM
- IC50 (Cathepsin B): 1.2 µM
- IC50 (Cathepsin V): 18.5 µM
- IC50 (USP30): 0.072 µM
- Hepatocyte Cl mouse scaled Clu (Hepatocyte Cl mouse): 108 mL/min/kg

Compound: N#CN1CC[C@H](C(=O)Nc2ncc(-c3ccccc3)s2)C1 [D]
- fold more potent against USP30 than UCHL1 (UCHL1): 0.8 fold

Compound: C[C@@H]1[C@H]2CCN(C(=O)c3ncc(-c4ccnc(C#N)c4)o3)[C@H]2CN1C#N (single isomer, unassigned) [Example 1]
- induction of mutations in reverse mutation assay [2]: did not induce mutations
- IC50 [1]: 24.9 to 107 µM
- maximum inhibition of the hERG current amplitude (hERG potassium channel): 27%
- Dog Kpuu (CSF/plasmau) (Dog PK (CSF); 30 mg/kg po): 0.41
- partition to the cerebro-spinal fluid (CSF) (Dog PK (CSF); dogs, 30 mg/kg orally): high partition
- inhibition of binding or enzyme activity against all targets in the panel [3]: less than 50%
- fraction unbound [4]: 0.14
- improved plasma stability compared to Reference Examples A, B and C (Mouse plasma stability): 2 to 8 fold
- half-life (Mouse plasma stability): > 120 min
- IC50 [5]: ≥ 42.1 µM
- FaSSIF (µM) measured at pH 6.5 (FaSSIF solubility): 488 µM
- Hepatocyte Cl human scaled Clu (Hepatocyte Cl human): 18 mL/min/kg
- IC50 (Cathepsin L): 42.1 µM
- induction of micronuclei (TK6 cells; 3 hours in the presence of exogenous metabolic activation): negative
- induction of micronuclei (TK6 cells; 27 hours in the absence of exogenous metabolic activation): negative
- IC50 (Cathepsin B): 205 µM
- Rat Kpuu (PFCu/plasmau) (Rat PK microdialysis): 0.43
- CNS distribution in vivo by microdialysis sampling of brain regions (Mouse PK microdialysis; 30 mg/kg oral dose in mice and rats): high CNS distribution
- Mouse Kpuu (PFCu/plasmau) (Mouse PK microdialysis; microdialysis 30 mg/kg po): 0.90
- Mouse PFCu/cell TOM20-Ub (Mouse PK microdialysis; microdialysis 30 mg/kg po): 125-fold
- IC50 (Cathepsin V): 247 µM
- IC50 (UCHL1): > 300 µM
- bioavailability (PK mouse (IV and oral); po, mouse 10 mg/kg, read-out: Oral F (%)): 87%
- clearance (PK mouse (IV and oral); mouse 2 mg/kg IV, read-out: Cl plasma): 19 mL/min/kg
- logD [6]: 1.4
- fraction unbound [7]: 0.3
- EC50 [8]: > 30 µM
- Hepatocyte Cl mouse scaled Clu (Hepatocyte Cl mouse): 40 mL/min/kg
- α-SMA levels in UUO injured kidneys vs vehicle (UUO injured kidneys; 1.5 mg/kg oral BID): statistical reduction in α-SMA levels
- collagen deposition (picrosirius red staining) in ligated kidneys (UUO injured kidneys; 1.5 mg/kg p.o. BID): statistically reduced collagen deposition
- collagen deposition (picrosirius red staining) in ligated kidneys (UUO injured kidneys; 5 mg/kg p.o. BID): statistically reduced collagen deposition
- solubility (Turbidimetric solubility): 65 µM (≈ 22.6 µg/mL)
- Papp A→B (WT-MDCK in vitro flux): 16 ×10⁻⁶ cm/s

Compound: CC1CC(C(=O)Nc2ncc(-c3ccccc3)s2)CN1C#N (stereo not shown) [Reference Example E]
- fold more potent against USP30 than UCHL1 (UCHL1): 1.5 fold

Compound: COc1ccc(-c2cc(C(=O)N3CC[C@@H]4CN(C#N)C[C@@H]43)on2)cc1 [B]
- IC50 [1]: 0.54 to 38.8 µM
- half-life (Mouse plasma stability): 21 min
- IC50 (Cathepsin L): 1.8 µM
- IC50 (Cathepsin B): 1.4 µM
- IC50 (Cathepsin V): 2.3 µM
- IC50 (USP30): 0.07 µM
- Hepatocyte Cl mouse scaled Clu (Hepatocyte Cl mouse): > 121 mL/min/kg
